{
  "source": "patent US20060265028A1",
  "about": "“Hair growth” (QLT INC., priority 2003, published 2006)",
  "key": {"[1]": {"conditions": "topical 0.5% hematoporphyrin and UVA three times a week for eight weeks; first week of treatment; cited from earlier work"}, "alopecia areata": {"test_system": "alopecia areata", "conditions": "cited from earlier work"}, "[2]": {"assay": "Safety: monitoring all adverse events during and after the PDT treatment", "assay_type": "in vivo, human", "conditions": "single topical QLT0074 ointment 0.2% w/w plus 50 or 75 J/cm^2 red light; 10 subjects", "procedure": "A total of 10 subjects were treated. All subjects were human males over 18 years of age and had type II or III Vertex alopecia, rated according to the modified Hamilton-Norwood scale.\nAll subjects received a single application of topical QLT0074 ointment 0.2% weight in weight (w/w) to two of three circular test sites on the vertex area of the scalp. The amount of ointment applied to each test site was approximately 224 mg (about 0.44mg of photosensitizer per test site). After 2 hours the excess drug was removed and red light (LED's—690nm) was administered to two of the three sites. The other test site served as a control with no drug or light administration.\nTwo light dose cohorts (50 and 75 J/cm^2) were investigated with each cohort having 5 subjects.\nSafety was assessed by monitoring all adverse events during and after the treatment."}, "[3]": {"test_system": "human males with type II or III Vertex alopecia", "assay": "Terminal hair counts 3 months after single topical PDT treatment, compared to baseline", "assay_type": "in vivo", "conditions": "3 months after treatment vs baseline, 5 subjects", "excerpt": "As used herein, the term “hair growth” refers to an increase in number of terminal hairs present. Terminal hair counts can be conducted in a number of ways. For example, the terminal hair can be counted by trained and validated technicians who perform a computer-assisted count on macrophotographs. In brief, a target area on the scalp is chosen, the hair clipped and the scalp permanently marked with a single dot tattoo in the center in order to facilitate the exact positioning at each subsequent photo session. The macrophotography is performed using a preset camera with a macro lens and a stand that provides a constant reproduction ratio and electronic flashes that reproducibly illuminate the area to photograph. The images are taken in triplicate, centering the camera using the tattoo and the color slide films are processed at a central facility. The quality of the images is assessed and large transparencies are made of the best images. The terminal hairs on the target circle of the transparencies are then counted by the trained technicians.\nA total of 10 subjects were treated. All subjects were human males over 18 years of age and had type II or III Vertex alopecia, rated according to the modified Hamilton-Norwood scale. […]\nThe efficacy was assessed by hair counts 3 months after the treatment and compared to baseline counts."}},
  "data": [
    {"smiles": "CC1=C(CCC(=O)O)c2cc3[nH]c(cc4nc(cc5[nH]c(cc1n2)c(C)c5C(C)O)C(C)=C4C(C)O)c(C)c3CCC(=O)O", "note": "(stereo not drawn) [hematoporphyrin]", "values": [
      {"measurement": "skin reactions at treated sites", "setting": "[1]", "result": "significant erythema and mild scaling followed by hyperpigmentation"}
    ]},
    {"smiles": "COc1c2occc2c(OC)c2c(=O)cc(C)oc12", "note": "[khellin]", "values": [
      {"measurement": "patients treated successfully", "setting": "alopecia areata; 2% khellin and UVA, alopecia areata", "result": "5 of the 10"},
      {"measurement": "phototoxicity", "setting": "alopecia areata; khellin and UVA", "result": "did not cause phototoxicity"}
    ]},
    {"smiles": "C=Cc1c(C)c2cc3nc(cc4[nH]c(cc5nc(cc1[nH]2)C(C)=C5CCC(=O)OCCO)c(CCC(=O)OCCO)c4C)[C@@]1(C)C3=CC=C(C(=O)OC)[C@H]1C(=O)OC", "note": "[QLT0074]", "values": [
      {"measurement": "serious adverse events", "setting": "[2]", "result": "No serious adverse events were reported"},
      {"measurement": "% change in terminal hair count", "setting": "[3]; 50 J/cm^2 red light (690nm) 2 hours after topical QLT0074 ointment 0.2% w/w", "result": "+8%"},
      {"measurement": "% change in terminal hair count", "setting": "[3]; 75 J/cm^2 red light (690nm) 2 hours after topical QLT0074 ointment 0.2% w/w", "result": "+4%"}
    ]}
  ]
}
